SMILES strings stand for the structures.

These results are taken from PMC12150283, “Synthesis of new Ag(I) and Cd(II) hydrozanomide-based complexes with antibacterial and anticancer properties” (RSC Advances, 2025).

The test system of test [1] is Bacillus cereus ŁOCK 0807. As to the kind of experiment: MIC determination. The class given is cell-based. The note with it: Bacillus cereus ŁOCK 0807; 18 h.
Test [2] concerns Bacillus subtilis ATCC 6633. The test can be described thus: MIC determination. The test is classed as cell-based. The conditions noted are these: 18 h. The gist of the method: (§1)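 Inocula at 1.5 × 10^8 CFU mL^−1 (McFarland 0.5) were spread on Mueller–Hinton agar per EUCAST, and DMSO solutions of compounds were loaded into 10 mm wells. Plates were incubated 18 hours at 30 °C for B. subtilis and 37 °C for the other strains. MIC was the lowest concentration preventing growth, from three independent replicates.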

Test [3] relates to Enterococcus faecalis ATCC 29212. As to the kind of experiment: MIC determination. The test is classed as cell-based. The note with it: E. faecalis ATCC 29212; 18 h. The gist of the method: as §1
The test system of test [4] is Escherichia coli ATCC 10530. The test can be described thus: MIC determination. The class given is cell-based. The note with it: Escherichia coli ATCC 10530; 18 h. The gist of the method: as §1
Test [5] concerns Listeria monocytogenes ATCC 19115. As to the kind of experiment: MIC determination. The class given is cell-based. The conditions noted are these: Listeria monocytogenes ATCC 19115; 18 h. The method in brief:
as §1

Test [6] relates to Salmonella typhimurium ATCC 14028. The test can be described thus: MIC determination. The test is classed as cell-based. The note with it: S. typhimurium ATCC 14028, 18 h. The method in brief: as §1
The test system of test [7] is Staphylococcus aureus ATCC 25923. The test can be described thus: MIC determination. The test is classed as cell-based. The conditions noted are these: S. aureus ATCC 25923, 18 h. The method in brief: as §1
Test [8] has as its system Staphylococcus aureus ATCC 6538. The test can be described thus: MIC determination. The test is classed as cell-based. The conditions noted are these: S. aureus ATCC 6538; 18 h. The gist of the method:
as §1

Test [9] deals with Staphylococcus epidermidis ATCC 12228. The test can be described thus: MIC determination. The test is classed as cell-based. The conditions noted are these: S. epidermidis ATCC 12228; 18 h. The gist of the method:
as §1

Test [10] relates to S. epidermidis ATCC 12228. The test can be described thus: Diffusion-well method, inhibition zones. The test is classed as cell-based, Staphylococcus epidermidis. The conditions noted are these: 500 µg/mL, wells 10 mm. The protocol:
(§2) The antibacterial activity of tested samples was assessed against both gram-positive bacteria (Staphylococcus aureus ATCC 25923, Staphylococcus aureus ATCC 6538, Staphylococcus epidermidis ATCC 12228, Enterococcus faecalis ATCC 29212, Listeria monocytogenes ATCC 19115, Bacillus subtilis ATCC 6633, Bacillus cereus ATCC 10876) and gram-negative bacteria (Escherichia coli ATCC 10530, Salmonella typhimurium ATCC 14028). Antibacterial properties were evaluated using both the dilution method (employing DMSO and 96-well plates) and the diffusion-well method (using Mueller Hinton Agar, Merck, Germany).
(§3) 24 hour bacterial cultures with a density of 1–2 × 10^8 CFU mL^−1 were plated (0.1 mL) on Mueller–Hinton Agar (Merck, Germany). Subsequently, wells with a diameter of 10 mm were cut out from and filled with 100 μL of the tested compound at a concentration of 10–500 μg mL^−1 (diluted in DMSO). After an 18-hour incubation at either 30 °C (for Bacillus ssp.) or 37 °C (for other tested microorganisms), the inhibition zones around the wells were measured, and the results were expressed in millimetres (Table S9 ^†).

In a further test the test system is E. faecalis ATCC 29212. As to the kind of experiment: Diffusion-well method, inhibition zones. The test is classed as cell-based, Enterococcus faecalis. The conditions noted are these: 500 µg/mL, wells 10 mm. The method in brief: (§4)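 Overnight (24 h) cultures at 1–2 × 10^8 CFU mL^−1 were spread on Mueller–Hinton agar, and 10 mm wells were filled with compound at 10–500 μg mL^−1 in DMSO. Plates were incubated 18 h at 30 °C for B. subtilis or 37 °C for the other strains; inhibition zone diameters were measured in mm.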

The test system of the next test is B. cereus ŁOCK 0807. The test can be described thus: Diffusion-well method, inhibition zones. The note with it: 500 µg/mL, wells 10 mm. The test is classed as cell-based, Bacillus cereus.
The next test has as its system B. subtilis ATCC 6633. The test can be described thus: Diffusion-well method, inhibition zones. The class given is cell-based, Bacillus subtilis. The conditions noted are these: 500 µg/mL, wells 10 mm. The protocol:
as §2, §3

In another test the test system is E. coli ATCC 10530. As to the kind of experiment: Diffusion-well method, inhibition zones. The note with it: 500 µg/mL, wells 10 mm. The class given is cell-based, Escherichia coli. The gist of the method: as §4
Test [11] relates to S. Typhimurium ATCC 14028. The test can be described thus: Diffusion-well method, inhibition zones. The class given is cell-based, Salmonella typhimurium. The conditions noted are these: 500 µg/mL, wells 10 mm. The protocol: as §2, §3
Test [12] has as its system glioblastoma LN-229 cells. The test can be described thus: MTT cell viability assay. The class given is cell-based, human. The conditions noted are these: 48 hours of incubation. The gist of the method: (§5)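 Cells seeded at 2 × 10^4/well, left 24 h, then treated with compound over 1–50 μM for 48 h. Viability was read by MTT colorimetry in triplicate, and IC50 was taken as the concentration lowering viability by 50%.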

The subject of test [13] is normal skin fibroblast BJ cells. The test can be described thus: MTT cell viability assay. The class given is cell-based, human. The conditions noted are these: BJ normal fibroblasts; 48 hours of incubation. The gist of the method: as §5

`NC(=NN=Cc1ccccc1)c1cncc(Cl)n1.O.O=[N+]([O-])[O-].[Ag+]` [Complex 1, AgL1NO3 × H2O]: the MIC is 50 µg/mL in test [1]; 50 µg/mL in test [2]; 50 µg/mL in test [3]; below 10 µg/mL in test [4]; below 10 µg/mL in test [5]; below 10 µg/mL in test [6]. The MIC in test [6] (listed as 1) was below 10 µg/mL; in test [7], below 10 µg/mL; in test [7] (listed as 1), below 10 µg/mL; in test [8], below 10 µg/mL; in test [9] it was 10 µg/mL. For the same compound, the Inhibition zone came out at 18 mm in test [10]; 17 mm in the test on E. faecalis ATCC 29212; 17 mm in the test on B. cereus ŁOCK 0807; 17 mm in the test on B. subtilis ATCC 6633; 20 mm in the test on E. coli ATCC 10530; 17 mm in test [11]. Besides, the IC50 worked out at 25.2 ± 3.75 µM in [12] and 20.5 ± 5.21 µM in [13].
